Measured values taken from paper PMC11421850, “Identification of pharmacological inducers of a reversible hypometabolic state for whole organ preservation” (eLife, 2024).

Molecular target: T1, delta opioid receptor (DOR) (Homo sapiens, UniProt P41143)
T1 construct: gene OPRD1
Test: biochemical

T1 sequence (P41143 whole entry): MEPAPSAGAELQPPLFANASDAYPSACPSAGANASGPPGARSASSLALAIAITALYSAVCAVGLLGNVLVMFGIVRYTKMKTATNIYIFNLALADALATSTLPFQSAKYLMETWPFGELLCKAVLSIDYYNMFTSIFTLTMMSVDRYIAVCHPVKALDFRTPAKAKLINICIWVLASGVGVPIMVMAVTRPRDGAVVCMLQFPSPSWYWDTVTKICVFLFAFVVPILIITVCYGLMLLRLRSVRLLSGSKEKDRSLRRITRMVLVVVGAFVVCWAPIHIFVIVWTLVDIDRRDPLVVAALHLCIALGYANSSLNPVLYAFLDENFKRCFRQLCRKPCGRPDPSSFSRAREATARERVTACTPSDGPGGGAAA

With `CCN(CC)C(=O)c1ccc([C@H](c2cccc(OC)c2)N2C[C@@H](C)OC[C@@H]2C)cc1` [WB3] the IC50 was 3.47 µM.
